Data published in ChEMBL document CHEMBL4765472, “Tenofovir-Amino Acid Conjugates Act as Polymerase Substrates-Implications for Avoiding Cellular Phosphorylation in the Discovery of Nucleotide Analogues” (J Med Chem, 2021).
Calls of active or inactive are those of the source. No cut-off for these calls is given here.

Experiments:
[1] = tested on: Human immunodeficiency virus 1; experiment: Substrate activity at HIV1 reverse transcriptase assessed as incorporation of compound into growing DNA strand at 1 mM incubated for 1 hr using primer and template in presence of MnCl2 by gel based nucleotide incorporation assay
[2] = tested on: Human immunodeficiency virus 1; experiment: Inhibition of HIV1 reverse transcriptase assessed as reduction in dsDNA synthesis at 2.5 mM incubated for 1 hr by PicoGreen-based spectrophotometric assay
[3] = tested on: Human immunodeficiency virus 1; experiment: Substrate activity at HIV1 reverse transcriptase assessed as incorporation of compound into growing DNA strand at 500 uM incubated for 1 hr using primer and template in presence of MgCl2 by gel based nucleotide incorporation assay
[4] = tested on: Human immunodeficiency virus 1; experiment: Substrate activity at HIV1 reverse transcriptase assessed as incorporation of compound into growing DNA strand at 500 to 1000 uM incubated for 1 hr using primer and template in presence of MgCl2 by gel based nucleotide incorporation assay; conditions: dose 500-1000 µM
[5] = tested on: Human immunodeficiency virus 1; experiment: Substrate activity at HIV1 reverse transcriptase assessed as incorporation of compound into growing DNA strand at 500 to 1000 uM incubated for 1 hr using primer and template in presence of MnCl2 by gel based nucleotide incorporation assay; conditions: dose 500-1000 µM
[6] = tested on: Human immunodeficiency virus 1; experiment: Substrate activity at HIV1 reverse transcriptase assessed as incorporation of compound into growing DNA strand at 500 uM incubated for 1 hr using primer and template in presence of MnCl2 by gel based nucleotide incorporation assay
[7] = Inhibition of HIV1 reverse transcriptase assessed as reduction in dsDNA synthesis incubated for 1 hr by PicoGreen-based spectrophotometric assay; parameters: species or system Human immunodeficiency virus 1

Row | SMILES | Activity [1] | inhibition (active/not active) [2] | Activity [3] | Activity [4] | Activity [5] | further results
1 | C[C@H](Cn1cnc2c(N)ncnc21)OCP(=O)(O)N[C@@H](Cc1c[nH]cn1)C(=O)O | Active | inactive | – | – | – | –
2 | C[C@H](Cn1cnc2c(N)ncnc21)OCP(=O)(O)O | – | – | inactive | – | – | –
3 | C[C@H](Cn1cnc2c(N)ncnc21)OCP(=O)(O)N[C@H](CC(=O)O)C(=O)O | – | inactive | Active | – | – | –
4 | Nc1ncnc2c1ncn2[C@H]1C[C@H](O)[C@@H](COP(=O)(O)N[C@@H](CC(=O)O)C(=O)O)O1 | – | inactive | – | Active | Active | –
5 | C[C@H](Cn1cnc2c(N)ncnc21)OCP(=O)(O)N[C@@H](Cc1ccccc1)C(=O)O | Active | inactive | – | – | – | –
6 | Nc1ncnc2c1ncn2[C@H]1C[C@H](O)[C@@H](COP(=O)(O)N[C@@H](Cc2ccccc2)C(=O)O)O1 | – | inactive | – | inactive | inactive | –
7 | CSCC[C@H](NP(=O)(O)OC[C@H]1O[C@@H](n2cnc3c(N)ncnc32)C[C@@H]1O)C(=O)O | – | inactive | – | inactive | inactive | –
8 | C[C@H](Cn1cnc2c(N)ncnc21)OCP(=O)(O)N[C@@H](CCC(=O)O)C(=O)O | – | inactive | 26.8% | – | – | Activity [6]: 40.8%
9 | C[C@H](Cn1cnc2c(N)ncnc21)OCP(=O)(O)N[C@@H](CC(=O)O)C(=O)O | Active | inactive | – | – | – | –
10 | Nc1ncnc2c1ncn2[C@H]1C[C@H](O)[C@@H](COP(=O)(O)O)O1 | – | – | Active | – | – | –
11 | N=C(N)NCCC[C@H](NP(=O)(O)OC[C@H]1O[C@@H](n2cnc3c(N)ncnc32)C[C@@H]1O)C(=O)O | – | inactive | – | inactive | inactive | –
12 | CSCC[C@H](NP(=O)(O)CO[C@H](C)Cn1cnc2c(N)ncnc21)C(=O)O | – | Active | – | – | – | IC50 [7]: 146 µM
13 | C[C@H](Cn1cnc2c(N)ncnc21)OCP(=O)(O)N[C@@H](CCCNC(=N)N)C(=O)O | inactive | inactive | – | – | – | –
